Source: ChEMBL document CHEMBL1201862, “PubChem BioAssay data set” (2004)
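Tested at 5 concentrations; 48 h exposure; 96-well plates; endpoints linearly interpolated, else capped at highest concentration. GI50 marks 50% less growth.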 Calls of active or inactive are those of the source. Cut-off read from the data, not from the text of the source: active = GI50 up to about 1.1 µM and inactive = higher.

Experiments:
Experiment in all cases: DTP human tumour cell line panel, 48 h
UO-31 = test system: UO-31
IGROV-1 = test system: IGROV-1
SK-MEL-5 = test system: SK-MEL-5
SK-MEL-28 = test system: SK-MEL-28
MOLT-4 = test system: MOLT-4
HCC 2998 = test system: HCC 2998
MDA-MB-435 = test system: MDA-MB-435
K562 = test system: K562
T47D = test system: T47D
ACHN = test system: ACHN
MDA-MB-231 = test system: MDA-MB-231
PC-3 = test system: PC-3
Malme-3M = test system: Malme-3M
COLO 205 = test system: COLO 205
CAKI-1 = test system: CAKI-1
RPMI-8226 = test system: RPMI-8226
RXF 393 = test system: RXF 393
KM12 = test system: KM12
DU-145 = test system: DU-145
OVCAR-5 = test system: OVCAR-5
NCI-H460 = test system: NCI-H460
M14 = test system: M14
SK-MEL-2 = test system: SK-MEL-2
HCT-116 = test system: HCT-116
A498 = test system: A498
UACC-257 = test system: UACC-257
HCT-15 = test system: HCT-15
HOP-92 = test system: HOP-92
SR = test system: SR
CCRF-CEM = test system: CCRF-CEM
SF-268 = test system: SF-268
SW-620 = test system: SW-620
OVCAR-3 = test system: OVCAR-3
OVCAR-4 = test system: OVCAR-4
SN12C = test system: SN12C
MCF7 = test system: MCF7
EKVX = test system: EKVX
NCI-H23 = test system: NCI-H23
SK-OV-3 = test system: SK-OV-3
SNB-19 = test system: SNB-19
SF-539 = test system: SF-539
HL-60 = test system: HL-60
LOX IMVI = test system: LOX IMVI
HOP-62 = test system: HOP-62
SF-295 = test system: SF-295
NCI-H522 = test system: NCI-H522
786-0 = test system: 786-0
U-251 = test system: U-251
NCI-H226 = test system: NCI-H226
HT-29 = test system: HT-29
Hs-578T = test system: Hs-578T
SNB-75 = test system: SNB-75
TK-10 = test system: TK-10
A549 = test system: A549
NCI/ADR-RES = test system: NCI/ADR-RES
MDA-N = test system: MDA-N
OVCAR-8 = test system: OVCAR-8
UACC-62 = test system: UACC-62
BT-549 = test system: BT-549

Measured: GI50

CCOC(=O)C(Cl)(NC(=O)c1ccc(F)cc1)C(F)(F)F (stereo not drawn)
> 100 µM: HCT-15
inactive: UO-31 > 100 µM | IGROV-1 > 100 µM | SK-MEL-5 > 100 µM | SK-MEL-28 > 100 µM | MOLT-4 > 100 µM | HCC 2998 > 100 µM | MDA-MB-435 > 100 µM | K562 > 100 µM | T47D > 100 µM | ACHN > 100 µM | MDA-MB-231 > 100 µM | PC-3 > 100 µM | Malme-3M > 100 µM | COLO 205 > 100 µM | CAKI-1 > 100 µM | RPMI-8226 > 100 µM | RXF 393 > 100 µM | KM12 39.2 µM | DU-145 > 100 µM | OVCAR-5 > 100 µM | NCI-H460 > 100 µM | M14 > 100 µM | SK-MEL-2 > 100 µM | HCT-116 > 100 µM | A498 > 100 µM | UACC-257 > 100 µM | HOP-92 > 100 µM | SR > 100 µM | CCRF-CEM > 100 µM | SF-268 > 100 µM | SW-620 > 100 µM | OVCAR-3 > 100 µM | OVCAR-4 > 100 µM | SN12C > 100 µM | MCF7 > 100 µM | EKVX > 100 µM | NCI-H23 > 100 µM | SK-OV-3 > 100 µM | SNB-19 > 100 µM | SF-539 > 100 µM | HL-60 > 100 µM | LOX IMVI > 100 µM | HOP-62 > 100 µM | SF-295 > 100 µM | NCI-H522 > 100 µM | 786-0 > 100 µM | U-251 > 100 µM | NCI-H226 > 100 µM | HT-29 > 100 µM | Hs-578T > 100 µM | SNB-75 77.3 µM | TK-10 > 100 µM | A549 > 100 µM | NCI/ADR-RES > 100 µM | MDA-N > 100 µM | OVCAR-8 > 100 µM

COc1cc(C(C[N+](=O)[O-])SC(C)=O)ccc1OCc1ccccc1 (stereo not drawn)
active: HL-60 0.261 µM | NCI-H522 0.345 µM
3.08 µM: HCT-15
inactive: UO-31 4.57 µM | IGROV-1 2.88 µM | SK-MEL-5 9.04 µM | SK-MEL-28 2.54 µM | MOLT-4 2.25 µM | HCC 2998 8.45 µM | MDA-MB-435 3.08 µM | K562 1.38 µM | T47D 20.5 µM | ACHN 9.55 µM | MDA-MB-231 4.93 µM | PC-3 4.47 µM | Malme-3M 12.3 µM | COLO 205 5.24 µM | CAKI-1 12 µM | RPMI-8226 1.39 µM | RXF 393 1.69 µM | KM12 4.85 µM | DU-145 13.3 µM | OVCAR-5 14.8 µM | NCI-H460 8.95 µM | M14 4.89 µM | SK-MEL-2 7.59 µM | HCT-116 4.13 µM | A498 7.57 µM | UACC-257 5.02 µM | UACC-62 3.09 µM | HOP-92 18.9 µM | SR 1.79 µM | CCRF-CEM 1.18 µM | SF-268 6.14 µM | SW-620 3.13 µM | OVCAR-3 3.01 µM | OVCAR-4 14.4 µM | SN12C 4.17 µM | MCF7 2.38 µM | EKVX 19.8 µM | NCI-H23 4.79 µM | SK-OV-3 16.1 µM | SNB-19 8.24 µM | SF-539 2.48 µM | LOX IMVI 1.43 µM | HOP-62 7.18 µM | SF-295 2.9 µM | 786-0 1.79 µM | U-251 6.9 µM | NCI-H226 7.91 µM | HT-29 2.4 µM | Hs-578T 3.31 µM | SNB-75 11.4 µM | TK-10 6.35 µM | A549 9.33 µM | NCI/ADR-RES 12.2 µM | MDA-N 2.88 µM | OVCAR-8 5.9 µM

COc1cccc(-c2cc(O)c3cc(N)ccc3n2)c1
inactive: IGROV-1 5.06 µM | SK-MEL-5 2.88 µM | SK-MEL-28 7.62 µM | MOLT-4 3.71 µM | HCC 2998 6.55 µM | BT-549 5.81 µM | ACHN 7.13 µM | MDA-MB-231 25.2 µM | PC-3 2.09 µM | Malme-3M 2.14 µM | COLO 205 4.27 µM | KM12 3.62 µM | OVCAR-5 > 100 µM | NCI-H460 3.75 µM | M14 4.63 µM | UACC-62 2.92 µM | HOP-92 3.44 µM | CCRF-CEM 2.25 µM | SW-620 1.94 µM | SN12C 7.05 µM | MCF7 3.94 µM | EKVX > 100 µM | NCI-H23 9.91 µM | SK-OV-3 2.3 µM | SNB-19 5.26 µM | SF-539 2.35 µM | HOP-62 5.92 µM | NCI-H522 2.39 µM | 786-0 4.05 µM | HT-29 3.22 µM | Hs-578T 2.09 µM | SNB-75 2.75 µM | TK-10 6.79 µM | A549 5.94 µM | NCI/ADR-RES 2.54 µM | OVCAR-8 9.16 µM
3.47 µM: HCT-15
active: MDA-MB-435 0.834 µM
